From patent US12377076B2, “Compounds for treating lymphoma or a T-cell malignant disease” (Purdue Pharma L.P., priority 2018, dated 2025)
Values joined by “and” are separate entries in the source; they are usually repeats but may differ in a detail not shown here. Equal values may be shown once. Read-outs that look alike come from different tables or passages of the source.

Key:
Type in all cases: in vivo, human
[1] = test system: patients with relapsed/refractory hematologic malignancies; assay: Tumour assessment: response to treatment, all HM; conditions: all 46 patients
Excerpt: (§1) Response to treatment included evaluation of overall response rate (patients with a CR plus patients with a PR), clinical benefit (CB) rate (patients with CR plus patients with PR plus patients with stable disease (SD)), progression free survival, and overall survival according to the relevant response criteria.

neutrophils = assay: PK/PD safety modelling: dose-nadir relationship of blood cell counts, neutrophils; conditions: (% CV) in table
Excerpt: (§2) The obtained exposure parameters (Cmax and AUC) and PK profiles from individual patients and the respective haematological laboratory data were collected over the treatment duration and analysed regarding the relationship to peripheral blood cell counts (lymphocytes, neutrophils, platelets).
(§3) The nadir was defined as the lowest blood cell count observed after the first administration. The nadir was extracted irrespective of the treatment duration, thus, the analysis data set included patients who received only one dose and patients who received multiple treatment cycles with tinostamustine. The baseline blood cell count, which was the count before the first administration, was included in the analysis as the cell count at dose, Cmax or AUC equal to 0. Thus, it was assumed that the baseline blood cell count was the effect level without treatment with tinostamustine. With an exploratory analysis all observations each predictor-nadir relationship was fitted with a least-squares method in R. The dose-nadir relationship was further investigated with a non-linear mixed effects approach. The advantage of the non-linear mixed effects approach compared to the exploratory analysis was that different external and patient factors could be investigated at the same time and the between patient variability can be described. […]

[2] = PK assessment: plasma tinostamustine and metabolites M2 and M8, non-compartmental analysis and population PK model; conditions: for AUC / Cmax / Tmax: day one, Mean (SD)
Protocol: Plasma samples were collected to determine the concentrations of tinostamustine and its metabolites (labelled M2 and M8) by a method fully validated according to the relevant guidelines. The PK profiles of tinostamustine in plasma were assessed in each patient in the escalation stage of the study, in cycle 1 only.
Patients of all cohorts and over all dose levels were sampled according to the following schedule: 0.5 hours prior to dose administration, and at 15, 30 and 45 minutes and 1, 1.25, 1.50, 2, 3, 8, 24, 48 and 72 hours from the start of tinostamustine infusion. Plasma samples were collected according to the Laboratory Manual for the determination of tinostamustine and metabolites M2 and M8 concentrations using a method fully validated according to the relevant guidelines.
A compartmental population PK analysis of tinostamustine was conducted to characterize its concentration-time profiles and its dependency on patient factors. For the analysis, the 24 hours plasma concentrations of tinostamustine at day one from 36 patients was used from whom the data was available. The concentration-time profiles were best described with a two-compartmental model with first order clearance from the central compartment.

platelets = assay: PK/PD safety modelling: dose-nadir relationship of blood cell counts, platelets; conditions: (% CV) in table
Excerpt: as §2, §3

patients with lymphoma = assay: Tumour assessment: response to treatment, patients with lymphoma
Excerpt: as §1

patients with HL = assay: Tumour assessment: response to treatment, patients with HL
Excerpt: as §1

[3] = human, plasma, intravenous, 20 mg/m^2, 20 mg/m^2, infusion 60 minutes
[4] = human, plasma, intravenous, 40 mg/m^2, 40 mg/m^2, infusion 60 minutes
[5] = human, plasma, intravenous, 60 mg/m^2, 60 mg/m^2, infusion 30 minutes
[6] = human, plasma, intravenous, 60 mg/m^2, 60 mg/m^2, infusion 60 minutes
[7] = human, plasma, intravenous, 80 mg/m^2, 80 mg/m^2, infusion 45 minutes
[8] = human, plasma, intravenous, 80 mg/m^2, 80 mg/m^2, infusion 60 minutes
[9] = human, plasma, intravenous, 100 mg/m^2, 100 mg/m^2, infusion 60 minutes
[10] = human, plasma, intravenous, 120 mg/m^2, 120 mg/m^2, infusion 60 minutes

Cn1c(CCCCCCC(=O)NO)nc2cc(N(CCCl)CCCl)ccc21 [tinostamustine]
best response complete response (CR) [1]: 7%
best response of PD [1]: 41%
best response partial response (PR) [1]: 21%
clinical benefit rate (CBR) [1]: 45%
overall response rate (ORR) [1]: 28%
EC50 (dose required to reduce the cell count by 50%) (neutrophils): 49.1 mg/m^2 and 49.1 (70%) mg/m^2
dose linearity of PK ([2]; dose range 20-120 mg/m^2 over 60 minutes infusion time): linear
dose linearity of PK ([2]; dose range 20 to 120 mg/m^2, infusion times of 30 to 60 minutes): dose-linear
AUC [2, 3]: 193 ng·h/mL
Cmax [2, 3]: 241 ng/mL
Tmax [2, 3]: 48 min
AUC [2, 4]: 932 ng·h/mL
Cmax [2, 4]: 1160 ng/mL
Tmax [2, 4]: 24 min
AUC [2, 5]: 627 ng·h/mL
Cmax [2, 5]: 1720 ng/mL
Tmax [2, 5]: 18 min
AUC [2, 6]: 592 ng·h/mL
Cmax [2, 6]: 640 ng/mL
Tmax [2, 6]: 60 min
AUC [2, 7]: 794 ng·h/mL
Cmax [2, 7]: 1280 ng/mL
Tmax [2, 7]: 24 min
AUC [2, 8]: 902 ng·h/mL
Cmax [2, 8]: 1060 ng/mL
Tmax [2, 8]: 48 min
AUC [2, 9]: 1660 ng·h/mL
Cmax [2, 9]: 1960 ng/mL
Tmax [2, 9]: 42 min
AUC [2, 10]: 1640 ng·h/mL
Cmax [2, 10]: 1770 ng/mL
Tmax [2, 10]: 48 min
half-life ([2]; human, plasma, intravenous, population PK, two-compartmental model, 36 patients, read-out: B half-life (converted)): 216 min
Vd ([2]; human, plasma, intravenous, population PK, two-compartmental model, 36 patients, read-out: Central volume of distribution): 20.6 L
half-life ([2]; human, plasma, intravenous, population PK, two-compartmental model, 36 patients, read-out: α half-life): 27 min
Peripheral volume of distribution ([2]; population PK, two-compartmental model, 36 patients): 11.5 L
time to maximum concentrations ([2]; shorter infusions): around 30 minutes
EC50 (dose required to reduce the cell count by 50%) (platelets): 55.5 mg/m^2 and 55.5 (72%) mg/m^2
CBR (patients with lymphoma; 27 patients with lymphoma): 62%
ORR (patients with lymphoma; 27 patients with lymphoma): 40%
best response CR (patients with lymphoma; 27 patients with lymphoma): 11%
best response PR (patients with lymphoma; 27 patients with lymphoma): 30%
best response SD (patients with lymphoma; 27 patients with lymphoma): 22%
best response of PD (patients with lymphoma; 27 patients with lymphoma): 37%
ORR and CBR (patients with lymphoma; LYM60 mg/m^2/30 min cohort): 100%
response (patients with HL; 1 patient with refractory HL treated with 120 m/m^2 over 6 cycles): achieved a CR
patients having a response from SD to CR (patients with HL; 10 patients with HL): 70%
